Experimental data: patent US7763648B2, “Oxa-steroids derivatives as selective progesterone receptor modulators” (Janssen Pharmaceutica N.V., priority 2006, dated 2010)

Key:
[1] = system: T47D human breast cancer cells; experiment: T47D Human Breast Cancer Cells Assay (alkaline phosphatase); assay type: cell-based; conditions: 24 h with test compound, luminescence
Procedure: T47D Human Breast Cancer Cells Assay
T47D human breast cancer cells were grown in RPMI medium without phenol red (Invitrogen) containing 10% (v/v) heat-inactivated fetal bovine serum (FBS; Hyclone), 1% (v/v) penicillin-streptomycin (Invitrogen), 1% (w/v) glutamine (Invitrogen), and […] insulin (Sigma). Incubation conditions were 37° C. in a humidified 5% (v/v) carbon dioxide environment.
The cells were plated in 96-well tissue culture plates at 10,000 cells per well in assay medium [RPMI medium without phenol red (Invitrogen) containing 5% (v/v) charcoal-treated FBS (Hyclone) and 1% (v/v) penicillin-streptomycin (Invitrogen)]. Two days later, the medium was decanted and test compound or control were added at a final concentration of 0.1% (v/v) dimethyl sulfoxide in fresh assay medium. Twenty-four hours later, an alkaline phosphatase assay was performed using a SEAP kit (BD Biosciences Clontech, Palo Alto, Calif.). Briefly, the medium was decanted and the cells were fixed for 30 minutes at room temperature with 5% (v/v) formalin (Sigma). The cells were washed once with room temperature Hank's buffered saline solution (Invitrogen). Equal volumes (0.05 mL) of 1× Dilution Buffer, Assay Buffer and 1:20 substrate/enhancer mixture were then added. After 1 hour incubation at room temperature in the dark, the lysate was transferred to a white 96-well plate (Dynex) and luminescence was read using a LuminoSkan Ascent (Thermo Electron, Woburn, Mass.).

[2] = system: A549 Human lung carcinoma cells; experiment: A549 Human Lung Cell Assay (transfected, dexamethasone challenge, Luc-assay); assay type: cell-based; conditions: Dexamathasone challenge, 24 h
Procedure: A549 Human Lung Cell Assay
A549 Human lung carcinoma cells were grown in F-12K Nutrient Mixture containing 10% (v/v) fetal bovine serum (FBS; Invitrogen), 2 mM glutamine and 0.15% sodium dicarbonate (Invitrogen).
A549 cells were split 1 to 3 in 175 cm tissue culture flask. The cells were incubated at 37° C. in CO2 incubator until the cells were 95% confluent (typically 24-30 hours).
The following solutions were prepared in sterile tubes: (a) Solution A: 1.5 μg/ml of DNA in 8.5 ml OPTI-MEM I Reduced Serum Medium. (GIBCO cat# 31985) and (b) Solution B: 6 μl/ml of DMRIE-C Reagent into […] OPTI-MEM I. The two solutions were combined and mixed gently, then incubated at room temperature for 40 minutes.
The A549 cells prepared above were washed with […] of OPTI-MEM I. The medium was removed and 17 ml of the lipid-DNA complex solution was overlayed onto cells. The cells ere then incubated for 16 h at 37° C. in CO2 incubator. The DNA-containing medium was removed and 30 ml of growth medium was added. (5% Charcoal treated FBS) After 5-6 h, the cells were seeded in a 96 well plate and the cells incubated overnight at 37° C. in CO2 incubator.
To each well was then added 5 μl of test compounds and the cells incubated at 37° C. for 10 min. 5 μL of Dexamathasone (CAS [50-02-2]), was then added to each well for challenger and the cells incubated at 37° C. in CO2 incubator for 24 h. 100 μl of Luc-assay buffer was then added into each cell well and the cells incubated for 30 min at room temperature. A 150 μL sample from each well was then transferred into a DYNEX Microlitel plate and read on Top-counter.

| SMILES | IC50 [1] | IC50 [2] |
| --- | --- | --- |
| C#C[C@]1(O)CC[C@H]2[C@@H]3OCC4=CC(=O)CCC4=C3C(c3ccc(N(C)C)cc3)C[C@@]21C (stereo in doubt) [Compound 4, 11-(4-Dimethylamino-phenyl)-17-ethynyl-17-hydroxy-13-methyl-1,2,8,11,12,13,14,15,16,17-decahydro-6H-7-oxa-cyclopenta[a]phenanthren-3-one] | 19 nM | 204 nM |
| CN(C)c1ccc(C2C[C@@]3(C)[C@@H](CC[C@@]3(O)C#CC(C)(C)C)[C@@H]3OCC4=CC(=O)CCC4=C23)cc1 (stereo in doubt) [Compound 5, 11-(4-Dimethylamino-phenyl)-17-(3,3-dimethyl-but-1-ynyl)-17-hydroxy-13-methyl-1,2,8,11,12,13,14,15,16,17-decahydro-6H-7-oxa-cyclopenta[a]phenanthren-3-one] | 185 nM | 167 nM |
| CN(C)c1ccc(C2C[C@@]3(C)[C@@H](CC[C@@]3(O)C#CC(C)(C)O)[C@@H]3OCC4=CC(=O)CCC4=C23)cc1 (stereo in doubt) [Compound 6, 11-(4-Dimethylamino-phenyl)-17-hydroxy-17-(3-hydroxy-3-methyl-but-1-ynyl)-13-methyl-1,2,8,11,12,13,14,15,16,17-decahydro-6H-7-oxa-cyclopenta[a]phenanthren-3-one] | > 1000 nM | 559 nM |
| CN(C)c1ccc(C2C[C@@]3(C)[C@@H](CC[C@@]3(O)C#Cc3ccc(C(C)(C)C)cc3)[C@@H]3OCC4=CC(=O)CCC4=C23)cc1 (stereo in doubt) [Compound 10, 17-(4-tert-Butyl-phenylethynyl)-11-(4-dimethylamino-phenyl)-17-hydroxy-13-methyl-1,2,8,11,12,13,14,15,16,17-decahydro-6H-7-oxa-cyclopenta[a]phenanthren-3-one] | 19.5 nM | 65.8 nM |
| CN(C)c1ccc(C2C[C@@]3(C)[C@@H](CC[C@@]3(O)C#CC(F)(F)F)[C@@H]3OCC4=CC(=O)CCC4=C23)cc1 (stereo in doubt) [Compound 13, 11-(4-Dimethylamino-phenyl)-17-hydroxy-13-methyl-17-trifluoroprop-1-ynyl-1,2,8,11,12,13,14,15,16,17-decahydro-6H-7-oxa-cyclopenta[a]phenanthren-3-one] | 18.6 nM | 55.5 nM |
| CN(C)c1ccc(C2C[C@@]3(C)[C@@H](CC[C@@]3(O)C#Cc3ccccn3)[C@@H]3OCC4=CC(=O)CCC4=C23)cc1 (stereo in doubt) [Compound 26, 11-(4-Dimethylamino-phenyl)-17-hydroxy-13-methyl-17-pyridin-2-ylethynyl-1,2,8,11,12,13,14,15,16,17-decahydro-6H-7-oxa-cyclopenta[a]phenanthren-3-one] | 34 nM | 175 nM |
| COCC#C[C@]1(O)CC[C@H]2[C@@H]3OCC4=CC(=O)CCC4=C3C(c3ccc(N(C)C)cc3)C[C@@]21C (stereo in doubt) [Compound 30, 11-(4-Dimethylamino-phenyl)-17-hydroxy-17-(3-methoxy-prop-1-ynyl)-13-methyl-1,2,8,11,12,13,14,15,16,17-decahydro-6H-7-oxa-cyclopenta[a]phenanthren-3-one] | 600 nM | 315 nM |
| CC#C[C@]1(O)CC[C@H]2[C@@H]3OCC4=CC(=O)CCC4=C3[C@@H](c3ccc(N(C)C)cc3)C[C@@]21C [Compound 1, 11-(4-Dimethylamino-phenyl)-17-hydroxy-13-methyl-17-prop-1-ynyl-1,2,8,11,12,13,14,15,16,17-decahydro-6H-7-oxa-cyclopenta[a]phenanthren-3-one] | 5.15 nM | 86.5 nM |
| CN(C)c1ccc([C@H]2C[C@@]3(C)[C@@H](CC[C@@]3(O)C#CC3CC3)[C@@H]3OCC4=CC(=O)CCC4=C32)cc1 [Compound 2, 17-Cyclopropylethynyl-11-(4-dimethylamino-phenyl)-17-hydroxy-13-methyl-1,2,8,11,12,13,14,15,16,17-decahydro-6H-7-oxa-cyclopenta[a]phenanthren-3-one] | 9.55 nM | 33.4 nM |
| CN(C)c1ccc([C@H]2C[C@@]3(C)[C@@H](CC[C@@]3(O)C#Cc3ccc(C(F)(F)F)cc3)[C@@H]3OCC4=CC(=O)CCC4=C32)cc1 [Compound 9] | 0.748 nM | 111 nM |

Second part, the compound after the results:

| IC50 [1] | IC50 [2] | SMILES |
| --- | --- | --- |
| 21 nM | 342 nM | CN(C)c1ccc(C2C[C@@]3(C)[C@@H](CC[C@@]3(O)C#Cc3cccnc3)[C@@H]3OCC4=CC(=O)CCC4=C23)cc1 (stereo in doubt) [Compound 27, 11-(4-Dimethylamino-phenyl)-17-hydroxy-13-methyl-17-pyridin-3-ylethynyl-1,2,8,11,12,13,14,15,16,17-decahydro-6H-7-oxa-cyclopenta[a]phenanthren-3-one] |
| 39 nM | 246 nM | CN(C)c1ccc(C2C[C@@]3(C)[C@@H](CC[C@@]3(O)C#Cc3ccncc3)[C@@H]3OCC4=CC(=O)CCC4=C23)cc1 (stereo in doubt) [Compound 28, 11-(4-Dimethylamino-phenyl)-17-hydroxy-13-methyl-17-pyridin-4-ylethynyl-1,2,8,11,12,13,14,15,16,17-decahydro-6H-7-oxa-cyclopenta[a]phenanthren-3-one] |
| 1.38 nM | 304 nM | CN(C)c1ccc([C@H]2C[C@@]3(C)[C@@H](CC[C@@]3(O)C#Cc3ccccc3)[C@@H]3OCC4=CC(=O)CCC4=C32)cc1 [Compound 3, 11-(4-Dimethylamino-phenyl)-17-hydroxy-13-methyl-17-phenylethynyl-1,2,8,11,12,13,14,15,16,17-decahydro-6H-7-oxa-cyclopenta[a]phenanthren-3-one] |
| 1.6 nM | 22.1 nM | Cc1ccc(C#C[C@]2(O)CC[C@H]3[C@@H]4OCC5=CC(=O)CCC5=C4[C@@H](c4ccc(N(C)C)cc4)C[C@@]32C)cc1 [Compound 7, 11-(4-Dimethylamino-phenyl)-17-hydroxy-13-methyl-17-p-tolylethynyl-1,2,8,11,12,13,14,15,16,17-decahydro-6H-7-oxa-cyclopenta[a]phenanthren-3-one] |
| 0.269 nM | 37.6 nM | CN(C)c1ccc([C@H]2C[C@@]3(C)[C@@H](CC[C@@]3(O)C#Cc3ccc(F)cc3)[C@@H]3OCC4=CC(=O)CCC4=C32)cc1 [Compound 8, 11-(4-Dimethylamino-phenyl)-17-(4-fluoro-phenylethynyl)-17-hydroxy-13-methyl-1,2,8,11,12,13,14,15,16,17-decahydro-6H-7-oxa-cyclopenta[a]phenanthren-3-one] |
| 0.943 nM | 31.3 nM | CN(C)c1ccc([C@H]2C[C@@]3(C)[C@@H](CC[C@@]3(O)C#Cc3ccc(Br)cc3)[C@@H]3OCC4=CC(=O)CCC4=C32)cc1 [Compound 11, 17-(4-Bromo-phenylethynyl)-11-(4-dimethylamino-phenyl)-17-hydroxy-13-methyl-1,2,8,11,12,13,14,15,16,17-decahydro-6H-7-oxa-cyclopenta[a]phenanthren-3-one] |
| 0.613 nM | 43.5 nM | CN(C)c1ccc([C@H]2C[C@@]3(C)[C@@H](CC[C@@]3(O)C#Cc3ccc(Cl)cc3)[C@@H]3OCC4=CC(=O)CCC4=C32)cc1 [Compound 12, 17-(4-Chloro-phenylethynyl)-11-(4-dimethylamino-phenyl)-17-hydroxy-13-methyl-1,2,8,11,12,13,14,15,16,17-decahydro-6H-7-oxa-cyclopenta[a]phenanthren-3-one] |
